In brackets after ≈: the same amount, converted by molar mass. Values belong to the molecule of their own block, whether it stands above or below them.
Assays:
DU-145 = assay: Antiproliferative activity against human DU-145 cells incubated for 48 hrs by MTT assay; type: functional, cell-based; settings: DU-145, 48 h
HCC1395 = assay: Antiproliferative activity against human HCC1395 cells incubated for 48 hrs by MTT assay; type: functional, cell-based; settings: HCC1395, 48 h
LNCaP = assay: Cytotoxicity against human LNCaP cells; type: functional, cell-based
TERT-RPE1 = assay: Cytotoxicity against human TERT-RPE1 cells; type: functional, cell-based; settings: RPE-1
Col2 = assay: Cytotoxicity against human Col2 cells; type: functional, cell-based
HUVEC = assay: Cytotoxicity against human HUVEC cells; type: functional, cell-based
[1] = Cytotoxicity against human Lu1 cells; type: functional, cell-based
Keratinocyte = assay: Cytotoxicity against guinea pig ear keratinocytes using [3H]thymidine by liquid scintillation counting analysis; type: functional, cell-based; settings: Cavia porcellus
HT-29 = assay: Growth inhibition of human HT-29 cells incubated for 72 hrs by SRB assay; type: functional, cell-based; settings: HT-29, 72 h
A549 [2] = assay: Growth inhibition of human A549 cells incubated for 72 hrs by SRB assay; type: functional, cell-based; settings: A549, 72 h
MDA-MB-231 = assay: Growth inhibition of human MDA-MB-231 cells incubated for 72 hrs by SRB assay; type: functional, cell-based; settings: MDA-MB-231, 72 h
NCI-H187 = assay: Cytotoxicity against human NCI-H187 cells; type: functional, cell-based
A549 [3] = assay: Cytotoxicity against human A549 cells measured after 48 hrs by MTT assay; type: functional, cell-based; settings: A549, 48 h
SGC-7901 = assay: Cytotoxicity against human SGC-7901 cells measured after 48 hrs by MTT assay; type: functional, cell-based; settings: SGC-7901, 48 h
SMMC-7721 = assay: Cytotoxicity against human SMMC-7721 cells measured after 48 hrs by MTT assay; type: functional, cell-based; settings: SMMC-7721, 48 h
HeLa = assay: Cytotoxicity against human HeLa cells measured after 48 hrs by MTT assay; type: functional, cell-based
[4] = biological target: T1, Kinesin-like protein KIF11 (Homo sapiens, UniProt P52732); assay: Inhibition of KSP (unknown origin)
T1 sequence (P52732 whole entry): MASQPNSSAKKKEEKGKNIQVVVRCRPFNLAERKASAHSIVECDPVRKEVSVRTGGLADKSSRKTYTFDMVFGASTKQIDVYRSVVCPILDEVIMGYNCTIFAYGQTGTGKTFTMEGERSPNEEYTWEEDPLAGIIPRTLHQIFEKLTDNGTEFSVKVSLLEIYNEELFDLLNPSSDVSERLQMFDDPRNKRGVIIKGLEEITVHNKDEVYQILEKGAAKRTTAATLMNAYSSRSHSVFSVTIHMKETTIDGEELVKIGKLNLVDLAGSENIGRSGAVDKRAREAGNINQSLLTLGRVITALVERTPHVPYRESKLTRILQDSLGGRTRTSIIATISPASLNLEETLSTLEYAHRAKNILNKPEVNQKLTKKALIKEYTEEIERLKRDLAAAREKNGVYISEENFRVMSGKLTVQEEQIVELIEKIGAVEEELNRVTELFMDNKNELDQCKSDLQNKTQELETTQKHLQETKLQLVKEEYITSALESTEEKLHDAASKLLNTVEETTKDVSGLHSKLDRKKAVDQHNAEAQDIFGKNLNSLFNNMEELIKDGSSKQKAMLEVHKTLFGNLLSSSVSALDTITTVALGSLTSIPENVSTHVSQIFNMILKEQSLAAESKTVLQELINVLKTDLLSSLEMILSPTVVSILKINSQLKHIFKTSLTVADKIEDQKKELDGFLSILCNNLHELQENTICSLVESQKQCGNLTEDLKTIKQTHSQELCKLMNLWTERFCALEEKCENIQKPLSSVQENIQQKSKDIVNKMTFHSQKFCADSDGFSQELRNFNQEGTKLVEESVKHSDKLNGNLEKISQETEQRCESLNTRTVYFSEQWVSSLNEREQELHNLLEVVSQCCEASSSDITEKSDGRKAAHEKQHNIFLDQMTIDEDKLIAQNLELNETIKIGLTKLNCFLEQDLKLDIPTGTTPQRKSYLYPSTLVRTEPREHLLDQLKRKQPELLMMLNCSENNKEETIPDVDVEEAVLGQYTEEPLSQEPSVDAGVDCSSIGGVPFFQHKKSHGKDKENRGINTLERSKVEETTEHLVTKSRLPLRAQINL

DNA topoisomerase 1 = biological target: T2, DNA topoisomerase 1 (Homo sapiens, UniProt P11387); assay: Inhibition of Topoisomerase 1 (unknown origin)
T2 sequence (P11387 whole entry): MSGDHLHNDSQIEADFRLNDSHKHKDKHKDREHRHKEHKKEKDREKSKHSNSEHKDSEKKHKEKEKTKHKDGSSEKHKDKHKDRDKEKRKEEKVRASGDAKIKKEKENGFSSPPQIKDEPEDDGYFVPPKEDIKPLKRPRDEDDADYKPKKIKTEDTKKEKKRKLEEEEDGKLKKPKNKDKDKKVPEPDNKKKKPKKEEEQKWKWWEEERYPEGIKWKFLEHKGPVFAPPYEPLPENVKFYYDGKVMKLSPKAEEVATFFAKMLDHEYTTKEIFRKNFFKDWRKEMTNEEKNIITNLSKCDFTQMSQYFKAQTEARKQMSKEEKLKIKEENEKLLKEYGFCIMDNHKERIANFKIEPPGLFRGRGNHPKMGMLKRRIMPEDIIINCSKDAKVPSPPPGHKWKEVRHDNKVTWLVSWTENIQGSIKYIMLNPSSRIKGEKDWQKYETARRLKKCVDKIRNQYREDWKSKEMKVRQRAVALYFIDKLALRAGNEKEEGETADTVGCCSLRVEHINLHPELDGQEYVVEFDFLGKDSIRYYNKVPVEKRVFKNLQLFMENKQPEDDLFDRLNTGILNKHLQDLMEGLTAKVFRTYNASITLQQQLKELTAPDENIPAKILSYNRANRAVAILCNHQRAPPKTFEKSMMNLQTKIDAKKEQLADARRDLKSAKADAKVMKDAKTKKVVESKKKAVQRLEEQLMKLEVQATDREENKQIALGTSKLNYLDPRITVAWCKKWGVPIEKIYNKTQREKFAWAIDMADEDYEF

A549 [5] = assay: Cytotoxicity against human A549 cells measured after 24 hrs by MTT assay; type: functional, cell-based; settings: A549, 24 h
COLO 205 = assay: Cytotoxicity against human COLO 205 cells measured after 24 hrs by MTT assay; type: functional, cell-based; settings: COLO 205, 24 h
MCF7 = assay: Cytotoxicity against human MCF7 cells measured after 24 hrs by MTT assay; type: functional, cell-based; settings: MCF7, 24 h
A2780 = assay: Cytotoxicity against human A2780 cells measured after 24 hrs by MTT assay; type: functional, cell-based; settings: A2780, 24 h

IC50 (DU-145): 1.58 µg/mL (≈ 6.31 µM)
IC50 (HCC1395): 14.7 µg/mL (≈ 58.7 µM)
Compound: COc1ccc2c(c1)c1ccnc3ccc(=O)n2c31

Compound: O=c1cc2c3ccccc3n3c(=O)ccc([nH]1)c23
IC50 (LNCaP): 506 nM
IC50 (TERT-RPE1): 506 nM
IC50 (Col2): 506 nM
IC50 (HUVEC): 506 nM
IC50 [1]: 506 nM

Compound: COc1cnc2ccc(=O)n3c4ccccc4c1c23
IC50 (Keratinocyte): 5.76 µg/mL (≈ 23 µM)

IC50 (HT-29): 45 µg/mL (≈ 126 µM)
IC50 (A549 [2]): 35 µg/mL (≈ 97.7 µM)
IC50 (MDA-MB-231): 42 µg/mL (≈ 117 µM)
Compound: NC(=O)c1c(-c2c[nH]c3cc(O)ccc23)ncc2[nH]c3ccc(O)cc3c12

IC50 (HT-29): 35 µg/mL (≈ 93.7 µM)
IC50 (A549 [2]): 100 µg/mL (≈ 268 µM)
IC50 (MDA-MB-231): 90 µg/mL (≈ 241 µM)
Compound: COc1ccc2[nH]c3cnc(-c4c[nH]c5cc(O)ccc45)c(C(=O)O)c3c2c1

Compound: C[C@H](O)c1nc(O)cc2c1[nH]c1ccccc12
IC50 (NCI-H187): 79900 nM

Compound: O=C(OCCCCCOC(=O)c1cc2c3ccccc3n(Cc3ccccc3F)c2cn1)c1cc2c3ccccc3n(Cc3ccccc3F)c2cn1
IC50 (A549 [3]): 5610 nM
IC50 (SGC-7901): 5610 nM
IC50 (SMMC-7721): 5610 nM
IC50 (HeLa): 5610 nM

IC50 [4]: 8910 nM
IC50 (DNA topoisomerase 1): 2500 nM
Compound: Cc1ccc(-n2c(-c3cc4c([nH]c5ccccc54)c(-c4cccc(O)c4)n3)n[nH]c2=S)cc1

Compound: COc1ccc(C(=O)n2c3ccccc3c3ccnc(-c4cc(-c5ccc(-c6nc7ccccc7s6)cc5)no4)c32)c(OC)c1OC
IC50 (A549 [5]): 140 nM
IC50 (COLO 205): 640 nM
IC50 (MCF7): 100 nM
IC50 (A2780): 190 nM

Reference: ChEMBL document CHEMBL5241090, “A comprehensive overview of β-carbolines and its derivatives as anticancer agents” (Eur J Med Chem, 2021)
